Format in all cases: cell-based, human
Test [1] has as its system Aiolos. Description: Intracellular Aiolos expression in stimulated anti-CD19 CAR-expressing T cells (flow cytometry MFI). As to the method:
T cell compositions containing anti-CD19 CAR-expressing T cells were generated from leukapheresis samples from three healthy human adult donors by a process including immunoaffinity-based selection of T cells (including CD4+ and CD8+ cells) from the samples, resulting in two compositions, enriched for CD8+ and CD4+ cells, respectively. The cells were incubated in the presence of (S)-3-[4-(4-morpholin-4-ylmethyl-benzyloxy)-1-oxo-1,3-dihydro-isoindol-2-yl]-piperidine-2,6-dione (Compound A) or 3-(5-amino-2-methyl-4-oxo-4H-quinazolin-3-yl)-piperidine-2,6-dione (Compound B), and expression of the transcription factors Ikaros and Aiolos was assessed. Cells of the enriched CD4+ and CD8+ compositions were separately activated with anti-CD3/anti-CD28 beads and subjected to lentiviral transduction with a vector encoding an anti-CD19 CAR. The anti-CD19 CAR contained an anti-CD19 scFv derived from a murine antibody (variable region derived from FMC63), an immunoglobulin-derived spacer, a transmembrane domain derived from CD28, a costimulatory region derived from 4-1BB, and a CD3-zeta intracellular signaling domain. The expression construct in the viral vector further contained sequences encoding a truncated receptor, which served as a surrogate marker for CAR expression, which was separated from the CAR sequence by a T2A ribosome skip sequence. Transduced populations then were separately incubated in the presence of stimulating reagents for cell expansion. Expanded CD8+ and CD4+ cells were formulated and cryopreserved separately and stored. The cryopreserved CD4+ and CD8+ anti-CD19 CAR-expressing cells from each donor were thawed, and combined at approximately a 1:1 CAR+CD4+:CD8+ ratio prior to use. Approximately 2.5×10^5 cells of the generated CAR+ T cell composition were stimulated overnight with 1 μg/ml of a CAR-specific anti-idiotypic antibody in the presence of 3-(5-amino-2-methyl-4-oxo-4H-quinazolin-3-yl)-piperidine-2,6-dione (Compound B) or (S)-3-[4-(4-morpholin-4-ylmethyl-benzyloxy)-1-oxo-1,3-dihydro-isoindol-2-yl]-piperidine-2,6-dione (Compound A) at concentrations ranging from 10 to 10000 nM or a vehicle control overnight at 37° C., 5% C02. Following overnight incubation, anti-CD19 CAR-expressing T cells were stained with antibodies and analyzed by flow cytometry to assess intracellular levels of Ikaros and Aiolos in CD4+ CAR+ or CD8+ CAR+ cells, as measured by median fluorescence intensity (MFI). Median fluorescence intensity (MFI) values for Ikaros and Aiolos were normalized and calculated as a percentage relative to vehicle control. […] The EC50 for reducing Aiolos and Ikaros expression was calculated as determined from the concentration of the inhibitor that reduced Aiolos or Ikaros MFI to 50% of its maximal MFI in the absence of the inhibitor.
(In general: Flow cytometry measures light scatter and fluorescence of single cells or particles in a stream.)

Test [2] relates to anti-CD19 CAR T cells. Description: RNA-seq gene expression of anti-CD19 CAR T cells sorted from tumor spheroids. As to the method: Gene expression analysis of anti-CD19 CAR T cells sorted from tumor spheroids 5 days after co-culture as described above was analyzed by RNA sequencing (RNA-seq) on the complementary DNA (cDNA) samples prepared from the RNA isolated from the long-term stimulated CAR-expressing T cells or on CAR-expressing T cells that had not undergone the long-term stimulation. Libraries for RNA-seq were sequenced on Illumina NextSeq system. Reads were mapped to the human reference genome GRCh38, and gene expression levels were quantified in Array Studio. Differential expression (DE, for RNA-seq) analysis was performed using DESeq2.
The dots on the top left quadrant represent genes induced by chronic stimulation and the dots on the lower right quadrant represent genes reversed by Compound A.
Pathway enrichment analysis of the differentially expressed genes were performed using clusterProfiler.
Gene expression analysis by RNA-seq was carried out substantially as described in Example 3.

Test [3] deals with K562.CD19, Raji, Granta-519 cells. Description: Cytolytic activity of chronically stimulated CAR T cells with rescue treatment, CD19+ tumor cells. The settings on record: 0.001 μM or 0.01 μM, E:T 1:1, vs control. Here is the method: Anti-CD19 CAR-expressing T cells from three donors, produced as described in Example 1, were stimulated under conditions to induce chronic stimulation (to produce hypofunctional, exhausted T cells) and then were subsequently treated (rescue) with (S)-3-[4-(4-morpholin-4-ylmethyl-benzyloxy)-1-oxo-1,3-dihydro-isoindol-2-yl]-piperidine-2,6-dione (Compound A), or a vehicle control. Long-term, chronic stimulation was carried out by stimulation of CAR T cells with 30 μg/mL plate-bound anti-idiotypic (anti-ID) antibody for 6 days, substantially as described in Example 3 but in the absence of Compound A. After the chronic stimulation, the CAR-T cells were rechallenged with CD19-expressing target cells in the presence of Compound A, and cytolytic activity or cytokine production was assessed.
CAR T cells that had been stimulated for 6 days with anti-ID were co-cultured with CD19+ tumor cells at an effector to target (E:T) ratio of 1:1, in the presence of Compound A (0.001 μM or 0.01 μM). The assessed CD19+ tumor cells included K562 cells transduced with CD19 (K562.CD19), Raji cells or Granta-519 cells.

The subject of test [4] is RL cells. Description: Rescue of chronically stimulated CAR T cells cultured with RL cells. The conditions noted are these: Compound B 1 μM, Compound A 0.001, 0.01 or 0.1 μM. Here is the method:
The RL cells were further used to assess the ability of immunomodulatory compounds to rescue or reverse the anti-CD19 CAR T cells from exhaustion. Anti-CD19 CAR-expressing T cells were stimulated under conditions to induce chronic stimulation and then were subsequently treated (rescue) with Compound B (1 μM) or Compound A (0.001 μM, 0.01 μM or 0.1 μM), or a vehicle control. Long-term, chronic stimulation was carried out by stimulation of CAR T cells with 30 μg/mL plate-bound anti-idiotypic (anti-ID) antibody for 6 days, substantially as described in Example 3. After the chronic stimulation, the CAR-T cells were cultured with RL cells in the presence of Compound B or Compound A. Cytolytic activity was assessed over time by measuring tumor cell number in the culture.

The subject of test [5] is Raji or Granta-519 lymphoma cells. Description: Cytolytic assay of CAR T cells treated 3 days, Raji or Granta-519 target cells. The conditions noted are these: 1 nM, 10 nM or 100 nM, 3 days treatment. Here is the method: After 3 days of treatment with Compound A, anti-CD19 CAR T cells were co-cultured with Raji or Granta-519 lymphoma cells using a cytolytic assay. To assess cytolytic activity, the target cells were labeled with NucLight Red (NLR) to permit tracking by fluorescent microscopy. Killing activity was assessed by measuring the loss of viable target cells over 200 hours, as determined by loss of fluorescent signal over time by kinetic fluorescence microscopy (using the INCUCYTE® Live Cell Analysis System, Essen Bioscience). Tumor cell numbers were normalized to time zero and measured over time (mean±SEM).
FIG. 7B depicts the tumor cell numbers of anti-CD19 CAR T cells treated with 1 nM, 10 nM, or 100 nM Compound A as compared with vehicle control (no Compound A) and tumor only.

Here are results for one compound from patent publication US20220401483A1, “COMBINATION OF A T CELL THERAPY AND (S)-3-[4-(4-MORPHOLIN-4-YLMETHYL-BENZYLOXY)-L-OXO-L,3-DIHYDRO-ISOINDOL-2-YL]-PIPERIDINE-2,6-DIONE” (Juno Therapeutics, Inc., priority 2019, published 2022).

For `O=C1CC[C@H](N2Cc3c(OCc4ccc(CN5CCOCC5)cc4)cccc3C2=O)C(=O)N1` [Compound A, (S)-3-[4-(4-morpholin-4-ylmethyl-benzyloxy)-1-oxo-1,3-dihydro-isoindol-2-yl]-piperidine-2,6-dione], the “intracellular Aiolos expression” value in test [1] (10 to 10000 nM, overnight) is listed as “concentration dependent decrease”. The “potency relative to Compound B in degradation of Ikaros and Aiolos” value in test [1] (CAR-expressing T cells) is reported as 10-20 fold. In addition, in test [1] (overnight incubation, 1 μg/ml anti-idiotypic antibody, average of donors (range, 95% confidence interval)), the EC50 came out at 2.5 nM. Also, the “expression changes in genes of T cell function pathways after chronic stimulation” value in test [2] (concurrent treatment) was “can be reversed”; in test [2] (rescue treatment), “can also be reversed”. In test [3], the “cytolytic activity (tumor cell number over time)” value is “statistically significant improvement”. In addition, in test [4], the “CAR T cell cytolytic activity, RL cell growth” value was “substantially improved”. For the same compound, the “cytolytic activity against target cells” value in test [5] is recorded as “improved”.

What is called EC50 is the concentration giving half of the maximal effect.
